The record followed here is PubChem BioAssay (NCI).

Values joined by “and” are separate entries in the source; they are usually repeats but may differ in a detail not shown here. Identical values can stand only once.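 Assay format: 96-well plates, 48-hour exposure. GI50 = concentration required for 50% inhibition of growth. The concentration for full growth arrest is given as TGI.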

Among the test systems are A549 NSCLC; NCI-H460 lung; EKVX NSCLC; M14 melanoma; OVCAR-4 ovarian; SN12C renal; IGROV1 ovarian; SK-MEL-28 melanoma; MOLT-4 leukemia; UO-31 renal.
Assay in all cases: inhibition of tumour cell growth, NCI panel, 48 h

In the case of `COc1ccc2[nH]c3c(c2c1)[C@H](C)C[C@@H]1C(=O)N(c2ccccc2)C(=O)[C@H]31`, the TGI is 62.4 µM in the assay on A549 NSCLC; greater than 100 µM in the assay on NCI-H460 lung; greater than 100 µM with EKVX NSCLC; greater than 100 µM with M14 melanoma; 45.2 µM in the assay on OVCAR-4 ovarian; 58.6 µM in the assay on SN12C renal. Besides, the TGI in the assay on IGROV1 ovarian was greater than 100 µM; in the assay with SK-MEL-28 melanoma, greater than 100 µM; in the assay on MOLT-4 leukemia it was 56.6 µM; with UO-31 renal, greater than 100 µM.
For the molecule `CN(C)C(=S)/N=c1\ssc(=S)n1Cc1ccncc1`, the TGI in the assay on A549 NSCLC was greater than 100 µM; in the assay with NCI-H460 lung, 31.5 µM; with EKVX NSCLC it was greater than 100 µM; in the assay on M14 melanoma it was 62.9 µM; with OVCAR-4 ovarian, 95.2 µM; in the assay on SN12C renal, greater than 100 µM. Besides, the TGI is 63.3 µM in the assay on IGROV1 ovarian, greater than 100 µM in the assay on SK-MEL-28 melanoma, 49.3 µM in the assay with MOLT-4 leukemia and 88.5 µM with UO-31 renal.
For the molecule `N#CNC(N)=Nc1ccc(Cl)cc1`, the TGI with A549 NSCLC, with NCI-H460 lung, with EKVX NSCLC, in the assay with M14 melanoma, with OVCAR-4 ovarian and in the assay on SN12C renal was greater than 100 µM throughout. Further, the TGI in the assay with IGROV1 ovarian, with SK-MEL-28 melanoma, in the assay on MOLT-4 leukemia and with UO-31 renal was greater than 100 µM in each case.
With `CCC(=O)Nc1nc2c(ncn2C2OC(COC(=O)CC)C(OC(=O)CC)C2OC(=O)CC)c(=O)[nH]1` (stereo not drawn), the TGI in the assay on A549 NSCLC, with NCI-H460 lung, in the assay with EKVX NSCLC, in the assay with M14 melanoma, with OVCAR-4 ovarian and in the assay on SN12C renal was greater than 100 µM each time. Besides, the TGI in the assay on IGROV1 ovarian, in the assay on SK-MEL-28 melanoma, with MOLT-4 leukemia and in the assay on UO-31 renal was greater than 100 µM in each case.
With `CCOC(=O)/C(C#N)=C\C=C(/Cl)c1ccc(Cl)cc1`, the GI50 is 30.4 µM in the assay with A549 NSCLC; 31 µM in the assay with NCI-H460 lung; 26.5 µM in the assay with EKVX NSCLC; 14.8 µM in the assay on M14 melanoma; 27.8 µM with OVCAR-4 ovarian; 21 µM with SN12C renal. Moreover, the GI50 in the assay with IGROV1 ovarian was 5.78 µM; in the assay with SK-MEL-28 melanoma, 15.5 µM; in the assay with MOLT-4 leukemia, 8.75 µM; in the assay on UO-31 renal, 18 µM. The TGI in the assay with A549 NSCLC was 90.4 µM; with NCI-H460 lung, greater than 77.5 µM; in the assay with EKVX NSCLC it was 63.9 µM; in the assay on M14 melanoma it was 31.4 µM; in the assay on OVCAR-4 ovarian it was greater than 76.4 µM; in the assay with SN12C renal it was 54.7 µM. The TGI in the assay on IGROV1 ovarian was 27.1 µM; in the assay on SK-MEL-28 melanoma, 32.3 µM; in the assay on MOLT-4 leukemia it was greater than 100 µM; with UO-31 renal, 35.4 µM.
Regarding `O=C1OCC2=C1C(c1ccccc1)c1cc3c(cc1N2CCO)OCO3` (stereo not drawn), the GI50 was 14.7 µM in the assay with A549 NSCLC; 2.07 µM with NCI-H460 lung; 14 µM in the assay with EKVX NSCLC; 1.92 µM in the assay with M14 melanoma; 4.38 µM in the assay on OVCAR-4 ovarian; 20.2 µM with SN12C renal. For the same molecule, the GI50 was 2.91 µM in the assay with IGROV1 ovarian, greater than 50 µM in the assay with SK-MEL-28 melanoma, greater than 50 µM in the assay on MOLT-4 leukemia and 27.8 µM in the assay with UO-31 renal. Further, the TGI in the assay with A549 NSCLC was greater than 50 µM; with NCI-H460 lung it was greater than 50 µM; with EKVX NSCLC, greater than 50 µM; in the assay with M14 melanoma it was 23.3 µM; in the assay on OVCAR-4 ovarian, greater than 50 µM; in the assay with SN12C renal it was greater than 50 µM. The TGI in the assay on IGROV1 ovarian, in the assay with SK-MEL-28 melanoma, in the assay on MOLT-4 leukemia and in the assay with UO-31 renal was greater than 50 µM each time.
In the case of `O=C(O)c1ccc(C2C(=O)N[C@@H]3CCC[C@H]23)cc1` (stereo partly drawn), the TGI in the assay with A549 NSCLC, in the assay with NCI-H460 lung, with EKVX NSCLC, in the assay with M14 melanoma, in the assay with OVCAR-4 ovarian and with IGROV1 ovarian was greater than 100 µM each time. The TGI with SK-MEL-28 melanoma, in the assay with MOLT-4 leukemia and in the assay on UO-31 renal was greater than 100 µM throughout.
For the molecule `C=C1C(=O)O[C@H]2[C@H]1CC/C(COC(=O)NCC(C)c1ccc(CC(C)C)cc1)=C\CC[C@@]1(C)O[C@@H]21` (stereo partly drawn), the GI50 with A549 NSCLC is 6.46 µM; in the assay with NCI-H460 lung, 4.69 µM; with EKVX NSCLC it was 3.85 µM; in the assay with OVCAR-4 ovarian it was 2.31 µM; with SN12C renal, 1.06 µM; with IGROV1 ovarian it was 0.551 µM. For the same molecule, the GI50 in the assay on SK-MEL-28 melanoma is 1.6 µM; in the assay on MOLT-4 leukemia, 0.974 µM; in the assay on UO-31 renal it was 0.474 µM. The TGI came out at 11.8 µM in the assay with A549 NSCLC; 10 µM in the assay on NCI-H460 lung; 7.95 µM with EKVX NSCLC; 6.59 µM with OVCAR-4 ovarian; 4.14 µM in the assay with SN12C renal; 1.18 µM with IGROV1 ovarian. In addition, the figures for the TGI with SK-MEL-28 melanoma, in the assay on MOLT-4 leukemia and with UO-31 renal were 5.52 µM, 3.05 µM and 0.909 µM, respectively.
On to `CCOC(=O)C1SC(=Nc2ccc(Cl)cc2)N=C1C` (stereo not drawn), for which the TGI turned out to be 38.1 µM in the assay with A549 NSCLC; 45.1 µM in the assay on NCI-H460 lung; 45.2 µM in the assay on EKVX NSCLC; 56.1 µM in the assay on OVCAR-4 ovarian; 31.3 µM with SN12C renal; 40 µM with IGROV1 ovarian. The TGI in the assay with SK-MEL-28 melanoma was found to be 40.9 µM; in the assay with MOLT-4 leukemia it was 48.8 µM; in the assay on UO-31 renal, 33.7 µM.
As for `CCC1=CC2CN(C1)Cc1c([nH]c3ccccc13)[C@@](C(=O)OC)(c1cc3c(cc1OC)N(C)[C@H]1[C@@](O)(C(=O)OC)[C@H](OC(C)=O)[C@]4(CC)C=CCN5CC[C@]31[C@@H]54)C2` (stereo partly drawn), the GI50 was 0.0114 µM and 0.0208 µM in the assay with A549 NSCLC; 0.00735 µM in the assay with NCI-H460 lung; 26.7 µM and 45.8 µM in the assay on EKVX NSCLC; 0.00953 µM and 0.0245 µM with M14 melanoma; 0.0341 µM in the assay on OVCAR-4 ovarian; 0.0118 µM and 0.0186 µM in the assay with SN12C renal. For the same molecule, the GI50 in the assay with SK-MEL-28 melanoma is 0.0221 µM; in the assay on MOLT-4 leukemia, 0.0105 µM; in the assay on UO-31 renal, 5.45 µM and 1.06 µM. In addition, the TGI in the assay on A549 NSCLC is 50 µM and > 100 µM; in the assay on EKVX NSCLC it was 50 µM and > 100 µM; in the assay with M14 melanoma it was 5.82 µM and 0.913 µM; in the assay with OVCAR-4 ovarian it was 50 µM and > 100 µM; in the assay on SN12C renal, 50 µM and > 100 µM; in the assay on SK-MEL-28 melanoma it was greater than 100 µM. Moreover, the TGI in the assay with MOLT-4 leukemia was 11.1 µM and 13.9 µM; in the assay on UO-31 renal, 26.6 µM and 76.9 µM.
